According to patent US20110165603A1, “SMALL MOLECULE FLUORESCENT SENSORS FOR DETECTION OF POST-TRANSLATIONALMODIFICATIONS AND PROTEIN INTERACTIONS IN BIOASSAYS” (Gyrasol Technologies Inc., priority 2008, published 2011):
“Also recorded” adds a separate entry of the source.

Tests used:
[1] = system: PKA present in 2 μg lysate; assay: Multiplexed lysate assay: PKA phosphorylation of Chromeo642-labeled LRRASLG; assay type: biochemical, mouse; settings: 3 μM substrate, FIG. 24B
Excerpt: (§1) In the presence of cAMP, PKA activity is stimulated resulting in phosphorylation of labeled kemptide substrate and an increase in the delta RFU of the kemptide (right axis). PDE4A 1A hydrolyzes c-AMP to AMP resulting in an increase in the delta RFU (left axis). In the presence of the PDE inhibitor IBMX, hydrolysis of cAMP is inhibited resulting in hight concentrations of cAMP and higher PKA activities. FIG. 24B is a line graph of the change in relative fluorescence units (delta RFU) in fluorescien-labelled cAMP (1.5 μM, left axis) and Chromeo642-labeled LRRASLG (3 μM, right axis) caused by PKA present in 2 μg lysate in the presence of varying amounts of the non-selective PDE inhibitor IBMX.
(§2) Multiplexing can be accomplished using electron transfer quenching with zirconyl chloride sensor and 2 μM fluorescein labeled cAMP simultaneously with 2 μM TAMRA labeled cGMP in various concentration of mouse brain lysate.
(§3) The assay platform can be used to monitor activities of enzymes of various classes, and thus is a novel tool to connect different braches of signaling. As outlined in the schematic FIG. 24A, a phsphodiesterase-mediated cleavage of cAMP is inhibited by IBMX. As a result, increasing amounts of cAMP can bind to the regulatory domain of its downstream target, PKA. Upon binding, the regulatory subunits disassociate from the catalytic subunit and PKA becomes catalytically active.

phosphodiesterase = assay: Multiplexed lysate assay: phosphodiesterase mediated cleavage of fluorescein-labeled cAMP; assay type: biochemical, mouse; settings: 2 μg lysate, 1.5 μM cAMP substrate, FIG. 24B
Excerpt: as §1, §2, §3

recombinant PDE41A1A = recombinant PDE41A1A (Homo sapiens, UniProt P27815); assay: PDE biochemical inhibition assay with fluorescein-labeled cAMP and zirconyl chloride sensor; settings: endpoint mode, PDE4A1A 3 nM, 2 μM fluorescein-labeled cAMP, 100 μM sensor, FIG. 21A
Chain of recombinant PDE41A1A (P27815 1-647 isoform P27815-4): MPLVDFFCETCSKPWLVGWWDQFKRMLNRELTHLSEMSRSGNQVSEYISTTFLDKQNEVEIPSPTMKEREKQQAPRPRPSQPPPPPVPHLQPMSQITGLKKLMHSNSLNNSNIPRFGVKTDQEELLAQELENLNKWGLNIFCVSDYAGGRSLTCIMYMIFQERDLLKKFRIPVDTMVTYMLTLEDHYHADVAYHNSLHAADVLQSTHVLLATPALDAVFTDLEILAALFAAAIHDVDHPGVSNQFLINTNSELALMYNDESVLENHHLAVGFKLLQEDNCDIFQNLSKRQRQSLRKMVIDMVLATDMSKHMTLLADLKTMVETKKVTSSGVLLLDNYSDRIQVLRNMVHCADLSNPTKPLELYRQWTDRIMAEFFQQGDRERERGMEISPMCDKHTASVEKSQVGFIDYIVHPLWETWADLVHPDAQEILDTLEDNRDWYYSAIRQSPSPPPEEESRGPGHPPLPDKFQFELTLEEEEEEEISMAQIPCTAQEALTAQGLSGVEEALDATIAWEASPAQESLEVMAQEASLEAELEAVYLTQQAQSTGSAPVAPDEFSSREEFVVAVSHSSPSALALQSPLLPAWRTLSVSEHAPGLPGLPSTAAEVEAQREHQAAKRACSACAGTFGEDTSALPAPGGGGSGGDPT
Protocol: Assays were conducted with fluorescein-labeled cAMP at 2 μM and sensor (zirconyl chloride) at 100 μM.
For biochemical assays, 2 μM fluorescein labeled cAMP was added to various concentrations of recombinant PDE4AIA and zirconyl chloride sensor was added (100 μM) following 1 hour of incubation at room temperature (FIG. 19A). […] Reactions were terminated by addition of 100 μM Zirconyl sensor. […] Reactions were terminated by addition of 100 μM Zirconyl sensor.

Inhibition values (recombinant PDE41A1A): closely matched literature values
SMILES: CC(C)Cn1c(=O)n(C)c(=O)c2[nH]cnc21 [IBMX]
PKA activity (delta RFU of Chromeo642-labeled LRRASLG) as a function of inhibitor concentration [1]: increasing phosphorylation of the PKA substrate Chromeo-GLRRASLG; also recorded: PKA activity increases with increasing amount of IBMX | PDE activity (delta RFU of fluorescein-labeled cAMP) as a function of inhibitor concentration (phosphodiesterase): decreasing activity of phosphodiesterase mediated cleavage of cAMP; also recorded: PDE activity decreased with increasing amounts of IBMX
